Measurements as given in ChEMBL document CHEMBL5543168, “Discovery of Urea Derivatives of Celastrol as Selective Peroxiredoxin 1 Inhibitors against Colorectal Cancer Cells” (J Med Chem, 2024).
Activity calls are given as the source filed them. The calls are words filed in the database; no cut-off is given here.

How the values were obtained:
[1] = molecular target: T1, Peroxiredoxin-4 (Homo sapiens, UniProt Q13162); experiment: Inhibition of recombinant PRDX4 (unknown origin) using H2O2 as substrate preincubated for 0.5 hrs followed by substrate addition by TRX-TrxR-NADPH coupling assay
T1 sequence (Q13162 whole entry): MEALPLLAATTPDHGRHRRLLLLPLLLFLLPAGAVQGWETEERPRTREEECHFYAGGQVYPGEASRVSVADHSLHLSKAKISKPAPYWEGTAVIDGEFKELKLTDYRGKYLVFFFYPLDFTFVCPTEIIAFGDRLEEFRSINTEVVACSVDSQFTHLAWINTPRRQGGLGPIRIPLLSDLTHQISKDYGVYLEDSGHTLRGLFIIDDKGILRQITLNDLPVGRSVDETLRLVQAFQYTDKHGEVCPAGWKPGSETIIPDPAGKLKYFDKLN

[2] = tested on: SW-620; experiment: Induction of cell cycle arrest at G2 phase in human SW620 cells at 1 uM incubated for 24 hrs by PI staining based flow cytometry (reference value: 6.77 %); assay type: functional
[3] = tested on: SW-620; experiment: Antitumor activity against human SW620 cells xenografted in BALB/c nude mouse assessed as decrease in Ki-67 level at 2 mg/kg, ip qd for 16 days by IHC analysis; assay type: functional, organism-based; settings: time 16.0 day
[4] = tested on: SW-620; experiment: cells; settings: Homo sapiens, SW-620, 48 h, read-out: Activity
Description: Induction of apoptosis in human SW620 cells assessed as viable cells at 1 uM incubated for 48 hrs by Annexin V-FITC/PI staining based flow cytometry (Rvb = 90.7 %)

## COC(=O)C1(NC(=O)N[C@]2(C)CC[C@]3(C)CC[C@]4(C)C5=CC=C6C(=CC(=O)C(O)=C6C)[C@]5(C)CC[C@@]4(C)[C@@H]3C2)CCC1
[1]
  IC50: > 50 µM
[2]
  Activity: 14.6%
[3]
  Activity: Active
[4]
  viability at 1 µM: 78.8%
